# According to US8999956B2, “N-[(het)arylalkyl)] pyrazole(thio)carboxamides and their heterosubstituted analogues” (Bayer Intellectual Property GmbH, priority 2010, dated 2015):
# What was measured:
# Alternaria solani = assay: In vivo preventive test on Alternaria solani (tomato); conditions: 500 ppm of active ingredient, evaluated 7 days after inoculation
# How it was run: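 Preventive set-up: Alternaria solani spores, as aqueous suspension, applied to young plants one day after spraying. Spray contained active compound formulated with N,N-dimethylformamide and emulsifier, water-diluted to the desired application rate.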
# Pyrenophora teres = assay: In vivo preventive test on Pyrenophora teres (barley); conditions: 500 ppm of active ingredient, evaluated 7-9 days after inoculation
# How it was run: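 Preventive test: young barley plants received a water-diluted spray of compound formulated with DMF solvent plus alkylaryl polyglycol ether emulsifier, at the stated rate. Inoculation with an aqueous spore suspension of Pyrenophora teres followed one day after spraying.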
# Aspergillus parasiticus = assay: microbe, parasite or virus in culture; type: cell-based
# [1] = log P by HPLC on reversed-phase column (EEC Directive 79/831 Annex V.A8); type: physicochemical
# Experimental: In table 1, the log P values were determined in accordance with EEC Directive 79/831 Annex V.A8 by HPLC (High Performance Liquid Chromatography) on a reversed-phase column (C18), using the method described below: Temperature: 40° C.; […]
# Sphaerotheca fuliginea = assay: In vivo preventive test on Sphaerotheca fuliginea (cucumber); conditions: 500 ppm of active ingredient, evaluated 7 days after inoculation
# Experimental: Solvent: 49 parts by weight of N,N-dimethylformamide Emulsifier: 1 part by weight of Alkylarylpolyglycolether To produce a suitable preparation of active compound, 1 part by weight of active compound is mixed with the stated amounts of solvent and emulsifier, and the concentrate is diluted with water to the desired concentration. To test for preventive activity, young plants are sprayed with the preparation of active compound at the stated rate of application. One day after this treatment, the plants are inoculated with an aqueous spore suspension of Sphaerotheca fuliginea. Then the plants are placed in a greenhouse at approximately 23° C. and a relative atmospheric humidity of approximately 70%.
# [2] = test system: aflatoxines produced by Aspergillus parasiticus; assay: microbe, parasite or virus in culture; type: cell-based
# Leptosphaeria nodorum = assay: In vivo preventive test on Leptosphaeria nodorum (wheat); conditions: 500 ppm of active ingredient, evaluated 7-9 days after inoculation
# Experimental: Solvent: 49 parts by weight of N,N-dimethylacetamide Emulsifier: 1 part by weight of alkylaryl polyglycol ether To produce a suitable preparation of active compound, 1 part by weight of active compound is mixed with the stated amounts of solvent and emulsifier, and the concentrate is diluted with water to the desired concentration. To test for preventive activity, young plants are sprayed with a preparation of active compound at the stated rate of application. One day after this treatment, the plants are inoculated with an aqueous spore suspension of Leptosphaeria nodorum.
# Puccinia triticina = assay: In vivo preventive test on Puccinia triticina (wheat); conditions: Table K, 500 ppm of active ingredient, evaluated 8 days after inoculation
Compound,Efficacy (Alternaria solani) [%],Efficacy (Pyrenophora teres) [%],% Inhibition of fungal growth at 50 μM (Aspergillus parasiticus) [%],logP [1],Efficacy (Sphaerotheca fuliginea) [%],% Inhibition of Aflatoxin at 50 μM [2] [%],Efficacy (Leptosphaeria nodorum) [%],Efficacy (Puccinia triticina) [%],Efficacy (Leptosphaeria nodorum; listed as example E-12 disclosed in patent application WO-2008/101976)
CC1CCCC(C)(C)C1CCC(C)N(C(=O)c1c(C(F)F)nn(C)c1Cl)C1CC1 (centres unmarked) [Example 368],80,95,93,6.07,93,100,–,–,–
CN(CCCc1cc(Cl)ccc1Cl)C(=S)c1c(C(F)F)nn(C)c1F [Example 168],90,100,–,4.11,–,–,90,–,–
Cn1nc(C(F)F)c(C(=O)N(C2CC2)C2CCCCC2C(C)(C)C)c1F (centres unmarked) [Example 350],90,100,100,4.71,100,100,–,–,–
CCC(CCc1sccc1Br)NC(=O)c1c(C(F)F)nn(C)c1F (centres unmarked) [Example 89],80,100,89,3.46,88,100,–,–,–
Cn1nc(C(F)F)c(C(=S)N(C[Si](C)(C)Cc2ccccc2Cl)C2CC2)c1F [Example 296],80,100,–,5.00,70,–,95,–,–
CC(CCc1ccc(C(F)(F)F)cc1)NC(=O)c1c(C(F)F)nn(C)c1F (centres unmarked) [Example 71],95,100,83,3.46,95,100,–,–,–
CC(CCc1c(Cl)cccc1Cl)NC(=O)c1c(C(F)F)nn(C)c1F (centres unmarked) [Example 163],100,100,100,3.59,100,100,–,80,–
Cn1nc(C(F)F)c(C(=O)N(C[Si](C)(C)Cc2ccccc2Cl)C2CC2)c1Cl [Example 294],95,95,84,4.56,–,100,70,–,–
Cc1cccc(C)c1CC(C)CNC(=O)c1c(C(F)F)nn(C)c1F (racemic) [Example 150],80,100,82,3.44,83,100,–,–,–
Cn1nc(C(F)F)c(C(=O)NC2CCCCC2Oc2ccccc2)c1F (centres unmarked) [Example 245],90,78,–,3.52,–,–,90,70,–
Cc1ccnc(OCC(C)NC(=O)c2c(C(F)F)nn(C)c2Cl)c1 (centres unmarked) [Example 37],80,100,–,2.13,–,–,90,–,–
"Cc1nn(C)c(F)c1C(=O)N(C(C)CCc1ccccc1C(F)(F)F)C1CC1 (centres unmarked) [E-12 from WO-2008/101976, N-cyclopropyl-5-fluoro-1,3-dimethyl-N-{4-[2-(trifluoromethyl)phenyl]butan-2-yl}-1H-pyrazole-4-carboxamide, reference compound]",–,–,–,–,–,–,10,–,less than 10%
CC(CNC(=O)c1c(C(F)F)nn(C)c1F)Cc1c(F)cccc1F (centres unmarked) [Example 157],80,100,–,3.02,–,–,80,–,–
CC(CCc1ccc(C(F)(F)F)cc1)NC(=O)c1c(C(F)F)nn(C)c1Cl (centres unmarked) [Example 70],95,100,78,3.63,75,97,–,–,–
Cc1cccc(C)c1CCC(C)NC(=O)c1c(C(F)F)nn(C)c1Cl (centres unmarked) [Example 153],–,100,99,3.61,100,100,–,95,–
CCC1(CNC(=O)c2c(C(F)F)nn(C)c2Cl)CCCCC1 [Example 365],–,–,–,3.78,–,–,90,–,–

Compound,Efficacy (Alternaria solani) [%],Efficacy (Pyrenophora teres) [%],% Inhibition of fungal growth at 50 μM (Aspergillus parasiticus) [%],logP [1],Efficacy (Sphaerotheca fuliginea) [%],% Inhibition of Aflatoxin at 50 μM [2] [%],Efficacy (Leptosphaeria nodorum) [%],Efficacy (Puccinia triticina) [%],Efficacy (Leptosphaeria nodorum; listed as example E-12 disclosed in patent application WO-2008/101976)
CC(C)CCC1CCCC1NC(=O)c1c(C(F)F)nn(C)c1Cl (centres unmarked) [Example 309],100,100,82,4.20,98,100,–,–,–
CC(CCc1cc(Cl)ccc1Cl)NC(=O)c1c(C(F)F)nn(C)c1F (centres unmarked) [Example 172],100,100,100,3.68,93,100,–,–,–
CC(N(C(=O)c1c(C(F)F)nn(C)c1Cl)C1CC1)C(C)(C)Cc1ccc(Cl)cc1Cl (centres unmarked) [Example 182],95,100,90,5.39,75,100,–,–,–
CC(CCc1ccc(Cl)c(Cl)c1)N(C(=O)c1c(C(F)F)nn(C)c1Cl)C1CC1 (racemic) [Example 130],95,95,–,4.62,–,–,90,70,–
Cn1nc(C(F)F)c(C(=O)N(C[Si](C)(C)Cc2ccccc2Cl)C2CC2)c1F [Example 295],100,100,100,4.41,–,100,100,–,–
Cn1nc(C(F)F)c(C(=O)N(CCOc2ccc(-c3ccccc3)cc2)C2CC2)c1F [Example 29],80,100,–,3.90,–,–,80,–,–
CC1CCCC(C)(C)C1CCC(C)N(C(=O)c1c(C(F)F)nn(C)c1F)C1CC1 (centres unmarked) [Example 367],90,100,100,5.81,100,100,–,–,–
CC(CCc1ccc(Cl)c(Cl)c1)NC(=O)c1c(C(F)F)nn(C)c1Cl (racemic) [Example 131],95,100,–,3.85,–,–,80,–,–
Cn1nc(C(F)F)c(C(=O)N(C[Si](C)(C)Cc2cc(Cl)cc(Cl)c2)C2CC2)c1F [Example 293],–,–,100,4.98,–,100,94,–,–
Cn1nc(C(F)F)c(C(=O)N(C[Si](C)(C)Cc2cccc(Cl)c2)C2CC2)c1Cl [Example 290],95,100,72,4.59,–,82,80,–,–
Cn1nc(C(F)F)c(C(=O)N(C[Si](C)(C)Cc2ccccc2)C2CC2)c1Cl [Example 287],95,100,–,4.20,–,–,95,–,–
Cn1nc(C(F)F)c(C(=O)NC(C)(C)CCc2ccc(Cl)cc2Cl)c1F [Example 196],95,100,91,4.39,75,100,–,–,–
CC(CCc1ccccc1Cl)NC(=O)c1c(C(F)F)nn(C)c1F (racemic) [Example 144],100,100,94,3.21,90,100,–,–,–
Cc1cccc(C)c1CCC(C)NC(=O)c1c(C(F)F)nn(C)c1F (centres unmarked) [Example 154],100,100,100,3.41,100,100,–,70,–
CC(C)CC1CCCCC1NC(=O)c1c(C(F)F)nn(C)c1F (centres unmarked) [Example 340],100,100,95,3.94,90,100,–,–,–
Cn1nc(C(F)F)c(C(=S)N(C[Si](C)(C)Cc2ccc(Cl)cc2Cl)C2CC2)c1F [Example 299],95,100,–,5.57,–,–,95,–,–
